Several values for one entry are separate records, joined by “and”; a condition that tells them apart may be missing. Equal entries are not always repeated. Values belong to the compound of their own block, whether it stands above or below them.
Tests used:
[1] = Protein binding via Transil assay, rat plasma; type: in vitro ADME; conditions: Rat Wistar plasma, Transil assay
Source text: The distribution of a test substance between Transil® (phosphatidylcholine lipid bilayers immobilized on silica beads) and plasma is a characteristic feature of any pharmaceutical compound and is dependent on its extent of binding to plasma proteins. By comparing the distribution between Transil® and buffer with the distribution between Transil® and plasma of any species of interest, the unbound fraction in the plasma of the respective animal species can be calculated in vitro. The respective plasma and buffer concentrations were determined via a radioactivity analysis. A detailed description of the method and its validation was published by Schuhmacher et al. (2).

[2] = tested on: hypoxia induced PAP increase in conscious dogs; assay: Haemodynamics in conscious hypoxia challenged dogs (C-2.2); type: in vivo, dog; design: PAP, absolute values for each animal: unit: mmHg; conditions: for mPAP decrease during Hypoxia, each animal / mPAP decrease during Hypoxia, mean +/− SEM: n = 3
Procedure: Experiments were carried out in anesthetized Göttingen minipigs, anesthetized rats and conscious, telemetrically instrumented dogs. Acute pulmonary hypertension was induced for example by infusion of a thromboxane A2 analogon, by acute hypoxia treatment or hypoxia treatment over a number of weeks and/or by administration of monocrotaline. Test substances were applied via nebulization using the Nebutec® or Aeroneb® Pro nebulizer system, and/or by means of powder and/or solution applicators for experimental intratracheal administration (Liquid MicroSprayer®, Dry Powder Insufflator™, MicroSprayer®, Penn-Century Inc., Wyndmoor, PA, USA) or after solid nebulization inserted into the inspiration arm of the ventilation. Compounds were employed as solids or solutions depending on the molecular structure and the technical possibility depending on the experiment. The haemodynamic signals were recorded and evaluated by means of pressure transducers/amplifiers (Combitransducer B. Braun, Melsungen, Germany or CardioMEMS Inc., Atlanta, GA, USA) and Ponemah® or CardioMems® as data aquisition software. After long-term experiments (for example monocrotaline rat), it is also possible to carry out a histological evaluation.
We evaluated the lung-selectivity and duration of effects of comparative example 11 under conscious conditions, in another species, and under a more physiological stimulus for PAP increase. Dogs were exposed to hypoxia for 30 minutes to induce a hypoxia-mediated PAP increase and comparative example 11 (100 μg/kg nominal dose) was applied by inhalation 1, 5, 12, 16 and 24 hours before hypoxia.
The hypoxic dog model was also used to compare different drug candidates wrt duration of action under conscious conditions.

[3] = 100 μg/kg nominal dose inhaled, 1-2 h post inhalation
[4] = 100 μg/kg nominal dose inhaled, 5-6 h post inhalation
[5] = 100 μg/kg nominal dose inhaled, 12-13 h post inhalation
[6] = 100 μg/kg nominal dose inhaled, 16-17 h post inhalation
[7] = 100 μg/kg nominal dose inhaled, 24-25 h post inhalation

- fraction unbound [1]: 0.00351
Compound: O=C(O)CCCCN(CCc1ccccc1OCc1ccc(CCc2ccccc2)cc1)Cc1ccc(C(=O)O)cc1 [comparative example 1, 4-[((4Carboxybutyl)-{2-[(4-phenethylbenzyl)oxy]phenethyl}amino)methyl]benzoic acid]

Compound: O=C(O)c1ccc(CCN(CCc2cc(F)ccc2OCc2ccc(-c3nc4cc(Cl)ccc4o3)cc2)C2CCCc3nc(C(=O)O)ccc32)cc1 (single isomer, unassigned) [comparative example 4, 5-{[2-(4-Carboxyphenyl)ethyl][2-(2-{[4-(5-chloro-1,3-benzoxazol-2-yl)benzyl]oxy}-5-fluorophenyl)-ethyl]amino}-5,6,7,8-tetrahydroquinoline-2-carboxylic acid]
- PAP, absolute values for each animal ([2]; 100 μg/kg nominal dose inhaled 1 h before hypoxia, time 4 min): 9 and 15 and 10
- PAP, absolute values for each animal ([2]; 100 μg/kg nominal dose inhaled 1 h before hypoxia, time 6 min): 9 and 14 and 11
- PAP, absolute values for each animal ([2]; 100 μg/kg nominal dose inhaled 1 h before hypoxia, time 8 min): 10 and 14 and 11
- PAP, absolute values for each animal ([2]; 100 μg/kg nominal dose inhaled 16 h before hypoxia, time 22 min): 23 and 26 and 13
- PAP, absolute values for each animal ([2]; 100 μg/kg nominal dose inhaled 16 h before hypoxia, time 24 min): 23 and 26 and 14
- PAP, absolute values for each animal ([2]; 100 μg/kg nominal dose inhaled 16 h before hypoxia, time 26 min): 21 and 32 and 15
- PAP, absolute values for each animal ([2]; 100 μg/kg nominal dose inhaled 16 h before hypoxia, time 28 min): 22 and 29 and 17
- PAP, absolute values for each animal ([2]; 100 μg/kg nominal dose inhaled 16 h before hypoxia, time 30 min): 26 and 31 and 18
- PAP, absolute values for each animal ([2]; 100 μg/kg nominal dose inhaled 16 h before hypoxia, time 32 min): 24 and 29 and 16
- PAP, absolute values for each animal ([2]; 100 μg/kg nominal dose inhaled 16 h before hypoxia, time 34 min): 23 and 32 and 21
- PAP, absolute values for each animal ([2]; 100 μg/kg nominal dose inhaled 16 h before hypoxia, time 36 min): 20 and 29 and 19
- PAP, absolute values for each animal ([2]; 100 μg/kg nominal dose inhaled 16 h before hypoxia, time 38 min): 25 and 29 and 12
- PAP, absolute values for each animal ([2]; 100 μg/kg nominal dose inhaled 16 h before hypoxia, time 40 min): 25 and 30 and 22
- PAP, absolute values for each animal ([2]; 100 μg/kg nominal dose inhaled 16 h before hypoxia, time 42 min): 12 and 21 and 8
- PAP, absolute values for each animal ([2]; 100 μg/kg nominal dose inhaled 16 h before hypoxia, time 44 min): 9 and 17 and 7
- PAP, absolute values for each animal ([2]; 100 μg/kg nominal dose inhaled 16 h before hypoxia, time 46 min): 9 and 16 and 8
- PAP, absolute values for each animal ([2]; 100 μg/kg nominal dose inhaled 16 h before hypoxia, time 48 min): 6 and 16 and 8
- PAP, absolute values for each animal ([2]; 100 μg/kg nominal dose inhaled 16 h before hypoxia, time 50 min): 6 (2×) and 15
- PAP, absolute values for each animal ([2]; 100 μg/kg nominal dose inhaled 24 h before hypoxia, time 0 min): 10 and 16 and 15
- PAP, absolute values for each animal ([2]; 100 μg/kg nominal dose inhaled 24 h before hypoxia, time 2 min): 12 and 16 and 17
- PAP, absolute values for each animal ([2]; 100 μg/kg nominal dose inhaled 24 h before hypoxia, time 4 min): 10 and 15 and 16
- PAP, absolute values for each animal ([2]; 100 μg/kg nominal dose inhaled 24 h before hypoxia, time 6 min): 10 and 13 and 14
- PAP, absolute values for each animal ([2]; 100 μg/kg nominal dose inhaled 24 h before hypoxia, time 8 min): 9 and 14 and 12
- PAP, absolute values for each animal ([2]; 100 μg/kg nominal dose inhaled 24 h before hypoxia, time 10 min): 10 and 15 and 14
- PAP, absolute values for each animal ([2]; 100 μg/kg nominal dose inhaled 24 h before hypoxia, time 12 min): 18 and 22 and 14
- PAP, absolute values for each animal ([2]; 100 μg/kg nominal dose inhaled 24 h before hypoxia, time 14 min): 18 and 19 and 15
- PAP, absolute values for each animal ([2]; 100 μg/kg nominal dose inhaled 24 h before hypoxia, time 16 min): 20 and 23 and 17
- PAP, absolute values for each animal ([2]; 100 μg/kg nominal dose inhaled 24 h before hypoxia, time 18 min): 23 and 25 and 17
- PAP, absolute values for each animal ([2]; 100 μg/kg nominal dose inhaled 24 h before hypoxia, time 20 min): 23 and 24 and 21
- PAP, absolute values for each animal ([2]; 100 μg/kg nominal dose inhaled 24 h before hypoxia, time 22 min): 22 and 26 and 17
- PAP, absolute values for each animal ([2]; 100 μg/kg nominal dose inhaled 24 h before hypoxia, time 24 min): 24 and 25 and 18
- PAP, absolute values for each animal ([2]; 100 μg/kg nominal dose inhaled 24 h before hypoxia, time 26 min): 23 and 25 and 19
- PAP, absolute values for each animal ([2]; 100 μg/kg nominal dose inhaled 24 h before hypoxia, time 28 min): 22 and 27 and 18
- PAP, absolute values for each animal ([2]; 100 μg/kg nominal dose inhaled 24 h before hypoxia, time 30 min): 23
- efficacy (PAP decrease), head to head ([2]; 100 μg/kg nominal dose inhaled, up to 6 hrs after inhalation): comparable efficacy
- mPAP decrease during Hypoxia, each animal [2, 3]: −11.69 mmHg and −10.19 mmHg and −11.38 mmHg
- mPAP decrease during Hypoxia, mean +/− SEM [2, 3]: −11.08 ± 0.46 mmHg
- mPAP decrease during Hypoxia, each animal [2, 4]: −14.81 mmHg and −6.69 mmHg and −8.00 mmHg
- mPAP decrease during Hypoxia, mean +/− SEM [2, 4]: −9.83 ± 2.52 mmHg
- mPAP decrease during Hypoxia, each animal [2, 5]: −0.50 mmHg and −4.63 mmHg and −0.56 mmHg
- mPAP decrease during Hypoxia, mean +/− SEM [2, 5]: −1.90 ± 1.36 mmHg
- mPAP decrease during Hypoxia, each animal [2, 6]: 0.81 mmHg and −0.56 mmHg and −1.06 mmHg
- mPAP decrease during Hypoxia, mean +/− SEM [2, 6]: −0.27 ± 0.56 mmHg
- mPAP decrease during Hypoxia, each animal [2, 7]: −2.56 mmHg and −3.13 mmHg and −2.25 mmHg
- mPAP decrease during Hypoxia, mean +/− SEM [2, 7]: −2.65 ± 0.26 mmHg

Reference: patent publication US12138256B2, “Treatment of cardiopulmonary disorders” (Bayer Aktiengesellschaft, priority 2021, dated 2024)
